The source of these data is article PMC11820866, “Angiotensin-Converting Enzyme (ACE)-Inhibitor Activity of Novel Peptides Derived from Porcine Liver and Placenta” (Molecules, 2025).

One data set concerns ACE. Set-up: method as in 14 sources, ref [13, 14] = [13]; PMID 16218651; doi:10.1021/jf0508908; 13. Vercruysse L. Van Camp J. Smagghe G. ACE inhibitory peptides derived from enzymatic hydrolysates of animal muscle protein: A review J. Agric. Food Chem. 2005 53 8106 8115 10.1021/jf0508908 1621865 || [14]; PMID 22061507; doi:10.1016/S0309-1740(00)00108-X; 14. Arihara K. Nakashima Y. Mukai T. Ishikawa S. Itoh M. Peptide inhibitors for angiotensin I-converting enzyme from enzymatic hydrolysates of porcine skeletal muscle proteins Meat Sci. 2001 57 319 32 ||| ref [13, 15] = [13]; PMID 16218651; doi:10.1021/jf0508908; 13. Vercruysse L. Van Camp J. Smagghe G. ACE inhibitory peptides derived from enzymatic hydrolysates of animal muscle protein: A review J. Agric. Food Chem. 2005 53 8106 8115 10.1021/jf0508908 1621865 || [15]; doi:10.1046/j.1344-3941.2003.00086.x; 15. Katayama K. Tomatsu M. Fuchu H. Sugiyama M. Kawahara S. Yamauchi K. Kawamura Y. Muguruma M. Purification and characterization of an angiotensin I-converting enzyme inhibitory peptide derived from ||| ref [16] = [16]; doi:10.1016/j.foodchem.2008.09.081; 16. Muguruma M. Ahhmed A.M. Katayama K. Kawahara S. Maruyama M. Nakamura T. Identification of pro-drug type ACE inhibitory peptide sourced from porcine myosin B: Evaluation of its antihypertensive eff ||| ref [17] = [17]; PMID 1368684; 17. Miyoshi S. Ishikawa H. Kaneko T. Fukui F. Tanaka H. Maruyama S. Structures and activity of angiotensin-converting enzyme inhibitors in an α-zein hydrolysate Agric. Biol. Chem. 1991 55 1313 1318 13 ||| ref [17, 18] = [17]; PMID 1368684; 17. Miyoshi S. Ishikawa H. Kaneko T. Fukui F. Tanaka H. Maruyama S. Structures and activity of angiotensin-converting enzyme inhibitors in an α-zein hydrolysate Agric. Biol. Chem. 1991 55 1313 1318 13 || [18]; PMID 16448176; doi:10.1021/jf051263l; 18. Wu J. Aluko R.E. Nakai S. Structural requirements of angiotensin i-converting enzyme inhibitory peptides: Quantitative structure−activity relationship study of di- and tripeptides J. Agric. Food C ||| ... The note with it: cited from earlier work; for IC50: porcine-derived peptides, literature, read-out: ACE Inhibition IC50; for ACE inhibition (in words): fish skin gelatine hydrolysate peptides, ref [26].

The next data set concerns the target T1, ACE from rabbit lung (Oryctolagus cuniculus, UniProt P12822).
T1 construct: ACE from rabbit lung (purchased from Sigma Aldrich 2U equal to 1 mg of protein); purchased Sigma Aldrich; host or cells: rabbit lung
T1 sequence (P12822 34-1310): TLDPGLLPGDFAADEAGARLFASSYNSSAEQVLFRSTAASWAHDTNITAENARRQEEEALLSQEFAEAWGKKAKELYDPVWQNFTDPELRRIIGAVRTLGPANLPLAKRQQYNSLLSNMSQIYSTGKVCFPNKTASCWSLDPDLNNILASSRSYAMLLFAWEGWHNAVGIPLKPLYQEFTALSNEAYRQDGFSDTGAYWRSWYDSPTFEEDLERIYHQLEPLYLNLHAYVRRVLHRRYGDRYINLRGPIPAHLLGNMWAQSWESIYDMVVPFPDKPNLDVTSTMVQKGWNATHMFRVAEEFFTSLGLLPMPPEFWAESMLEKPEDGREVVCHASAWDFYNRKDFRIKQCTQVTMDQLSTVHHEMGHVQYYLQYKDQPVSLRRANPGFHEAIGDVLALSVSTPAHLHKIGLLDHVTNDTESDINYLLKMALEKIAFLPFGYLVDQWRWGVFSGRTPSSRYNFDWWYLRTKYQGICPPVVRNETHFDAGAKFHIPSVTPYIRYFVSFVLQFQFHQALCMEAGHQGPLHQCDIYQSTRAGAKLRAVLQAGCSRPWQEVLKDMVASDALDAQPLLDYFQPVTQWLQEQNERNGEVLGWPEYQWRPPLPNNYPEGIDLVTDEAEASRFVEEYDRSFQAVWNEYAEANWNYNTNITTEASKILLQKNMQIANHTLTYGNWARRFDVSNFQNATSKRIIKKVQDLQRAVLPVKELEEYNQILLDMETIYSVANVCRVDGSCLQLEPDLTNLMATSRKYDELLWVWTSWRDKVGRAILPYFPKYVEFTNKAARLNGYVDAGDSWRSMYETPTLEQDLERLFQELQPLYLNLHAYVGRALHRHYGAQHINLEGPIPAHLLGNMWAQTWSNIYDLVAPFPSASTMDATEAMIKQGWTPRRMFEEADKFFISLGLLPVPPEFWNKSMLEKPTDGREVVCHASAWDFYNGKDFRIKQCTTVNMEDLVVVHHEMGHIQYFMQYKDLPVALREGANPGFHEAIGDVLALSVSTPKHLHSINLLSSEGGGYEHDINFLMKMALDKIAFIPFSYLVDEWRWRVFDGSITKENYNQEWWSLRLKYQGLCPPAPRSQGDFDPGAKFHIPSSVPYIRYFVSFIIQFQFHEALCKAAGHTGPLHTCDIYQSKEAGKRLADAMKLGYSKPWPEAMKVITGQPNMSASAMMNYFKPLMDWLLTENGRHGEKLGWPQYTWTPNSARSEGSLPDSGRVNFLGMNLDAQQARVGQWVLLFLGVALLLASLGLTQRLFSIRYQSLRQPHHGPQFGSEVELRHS
The data set can be described thus: ACE-inhibition assay (modified Cushman and Cheung, HHL substrate, HPLC). The class given is biochemical. The conditions noted are these: 0.5 mM HHL, TRIS pH 8.3, 37 °C 30 min, HPLC-UV 228 nm, calculated from % inhibition at 0.1, 1 (2) mM, this study.

Data set [1] is described as follows: Solubility of synthetic peptides in aqueous solution. The class given is physicochemical. The conditions noted are these: in words; stocks 10 mM in deionised water. How it is done:
Based on the in silico activity prediction, four synthetic peptides were ordered from Peptide Synthetics (Protein Peptide Research Ltd., Fareham, UK). They were supplied as 10 mg aliquots of lyophilised powders. The synthetic peptides were dissolved in deionised water to produce 10 mM stock solutions: • FWG: 10 mg/mL = 24.48 mM therefore 10 mM = 4.085 mg/mL • MFLG: 10 mg/mL = 21.43 mM therefore10 mM = 4.666 mg/mL • […]: 10 mg/mL = 10.75 mM therefore 10 mM = 9.302 mg/mL • FFNDA: 10 mg/mL = 16.32 mM or10 mM = 6.127 mg/mL

Where two headings read alike, the source gives them in different places. Residues, ends and D or L forms follow the SMILES beside them. No end group written: not given here.

Description for ACE from rabbit lung: ACE from rabbit lung (purchased from Sigma Aldrich 2U equal to 1 mg of protein) was reconstituted in milli-q water (1 mL) to produce the ACE stock solution (1 U/mL, 500 μg/mL of protein). ACE working solution (200 mU/mL, 100 μg/mL of protein) was prepared by diluting the stock solution 1:5. ACE stock solution was stored at −20 °C, and the ACE working solution was prepared when required. […] Milli-q water or experimental sample (40 μL) and 0.5 mM HHL (145 μL) were added to 1.5 mL micro-centrifuge tubes and incubated in a water bath at 37 °C for 3 min; then, 200 mU/mL ACE (15 μL) was added to each tube and the tubes were then incubated in a water bath at 37 °C for 30 min. After 30 min, 1 M HCl (200 μL) was added to the tubes to stop the reaction.
To determine the anti-ACE activity of the analytes, the samples were analysed using HPLC (Beckman Coulter) fitted with an Ascentis® Express Peptide ES-C18, 2.7 μm column. The samples were eluted with an isocratic mobile phase consisting of 50% methanol and 50% water containing trifluoroacetic acid (TFA) (0.2%) at a flow rate of 0.4 mL/min. The substrate and the product were detected using UV at 228 nm. The ability of each peptide to inhibit ACE was measured by comparing the reduction of HA (the product of ACE digested HHL) in relation to the positive control (no inhibitor or peptide present). Inhibition was calculated using Equation (1), as follows:ACE inhibition (%) = (1 − (B ÷ A)) × 100(1) where A is the area of the HA peak in control 1 and B is the area of the HA peak in experimental sample. To assess the anti-ACE activity of the synthetic peptides, samples were prepared by diluting the 10 mM stock synthetic peptide solutions using milli-q water to produce samples at 2 mM, 1 mM, and 0.1 mM.

On to “VLAQYK [peptide derived from meat waste]”, for which, in the data set with ACE (peptide derived from meat waste, ref [7]), the “ACE-inhibitory activity (in words)” value is on record as “greatest ACE-inhibitory activity”.
In general, IC50 refers to the point on the concentration scale where inhibition reaches its midpoint. In the case of “RMLGQTPTK [literature porcine peptide, troponin C]”, the IC50 in the data set with ACE (ref [13],[15]) was 34 µM.
As for “RMLGQTP [literature porcine peptide, troponin C]”, the IC50 with ACE (ref [13],[15]) was 503 µM.
“KRQKYDI [literature porcine peptide, troponin]”: in the data set with ACE (ref [17],[20]), the IC50 is 27 µM.
Take “PTPVP [literature porcine peptide, titin]”: the IC50 in the data set on ACE (ref [20],[24]) is 256 µM.
As to “GIPGAP [peptide from hydrolysates of thornback ray skin]”, in the data set on ACE, the “ACE inhibition (in words)” value is on record as “most active ACE inhibitor”.
For “KAPVA [literature porcine peptide, titin]”, in the data set on ACE (ref [20],[24]), the half-maximal inhibitory concentration (IC50) is 47 µM.
Regarding “MNPPK [literature porcine peptide, myosin]”, in the data set on ACE (ref [13],[14]), the IC50 was 946 µM.
“VKAGF [literature porcine peptide, actin]”: in the data set with ACE (ref [16]), the IC50 is 20 µM.
As for “KRVITY [literature porcine peptide, myosin]”, the IC50 in the data set on ACE (ref [16]) is 6 µM.
With FFNDA [FFNDA], the IC50 at ACE from rabbit lung was 0.83 mM. Also, in data set [1], the “Solubility in aqueous solution” value was “perhaps less soluble”.
For the compound `CSCC[C@H](N)C(=O)N[C@@H](Cc1ccccc1)C(=O)N[C@@H](CC(C)C)C(=O)NCC(=O)O` [MFLG] (H-MFLG-OH), the IC50 at ACE from rabbit lung was 0.07 mM. The “Solubility in aqueous solution” value in data set [1] is given as “readily soluble in aqueous solution”.
In the case of “VKKVLGNP [literature porcine peptide, myosin (light chain)]”, the 50% inhibitory concentration (IC50) in the data set on ACE (ref [20],[21]) is 29 µM.
As for “ITTNP [literature porcine peptide, myosin]”, the 50% inhibitory concentration (IC50) in the data set with ACE (ref [13],[14]) is 549 µM.
With LLMLDNDLPP, the “ACE inhibition (in words)” value in the data set with ACE is recorded as “potent non-competitive ACE inhibition”.
As for SDPPLVFVG, the IC50 at ACE from rabbit lung is 1.16 mM. Also, the “Solubility in aqueous solution” value in data set [1] is on record as “perhaps less soluble”.
